One data set can be described thus: Microsomal stability. The class given is in vitro ADME.
Data set [1] has as its system U2OS cells. Nature of the data set: Analysis of micronuclei. The class given is cell-based. As to conditions: 48 h. The method, then: 5 Small-molecule inhibitors of MUS81 mimic the effect of siRNA-mediated MUS81 depletion in cells. (A) U2OS cells were treated with DMSO, MUS81-targeting siRNA, MU262, MU876, or their respective control analogues for 48 h. Cytochalasin B (1.25 μg/mL) was added 16 h before harvest to prevent cytokinesis. […] (B) Representative images corresponding to the selected conditions from (A). (C) U2OS and (D) HeLa cells were incubated with DMSO, the indicated inhibitors, and their respective control analogues for 48 h. Nocodazole (200 ng/mL) was added for 5 h prior to the end of treatment to arrest cells in mitosis. Mitotic cells were collected by shake-off, and telomere fragility events (TFEs) were quantified manually for each metaphase spread. At least 70 metaphase spreads were quantified per condition. n = 3; error bars represent s.d.; ***p < 0.001, ****p < 0.0001 (ordinary One-way ANOVA).
CAL51 WT and CAL51 MUS81^–/– cells were seeded in a 96-well plate 24 h before the treatment. Alternatively, cells were transfected with 30 nM siRNA (control or MUS81) for 48 h before treatment. Subsequently, cells were treated with respective inhibitors for 48 h. During the last 16 h, cytochalasin B (Sigma-Aldrich) was added to the cells at a concentration of 1.25 μg/mL. […] Images were acquired using a Nikon Eclipse fluorescence microscope and analyzed using ImageJ software.

Data set [2] has as its system U2OS cells. Kind of data set: Annexin V apoptotic assay. The data set is classed as cell-based. The note with it: 3 days. The method, then: Given these promising findings, we further investigated the specificity of MU262 and MU876 and potential short-term cytotoxicity. To mirror the treatment duration used in BIR and HR assays, U2OS cells were exposed to the inhibitors or siRNA for 3 days.
U2OS WT cells (300,000) were seeded in a 6-well plate, a subset of them was treated with either control siRNA or siRNA targeting MUS81. After adhesion, cells were treated with the respective inhibitors for 72 h during which CPT (100 μM, Sigma-Aldrich) was added for the last 2 h. Cells were harvested, washed in ice-cold PBS, and collected by centrifugation at 500g for 5 min. Cells were simultaneously stained with FITC-labeled annexin V antibody (556419, Becton Dickinson) and PI (5 μL) at room temperature for 15 min, protected from light. Stained cells were analyzed using a BD FACSVerse flow cytometer (Becton Dickinson) and FlowJo software (BD Life Sciences). At least 20,000 cells were used for each measurement, and experiments were performed in duplicates.

Data set [3] concerns U2OS cells. Kind of data set: γH2AX foci immunofluorescence, 72 h treatment. The class given is cell-based. As for the experimental part: 6 MUS81 inhibition induces persistent DNA damage leading to reduced cell survival. (A) U2OS cells were treated with DMSO, cisplatin as a positive control, control or MUS81-targeting siRNA, MU262, MU876, and their negative control counterparts at the indicated concentrations for 72 h. Representative images show staining of a DNA damage marker γH2AX in green with counterstaining of DAPI in blue. The concentration of all inhibitors shown in (A) is 2.5 μM. (B) DNA damage was assessed by quantifying γH2AX foci per nucleus from (A) using CellProfiller software. The graph represents percentage (%) of cells with ≥20 γH2AX foci per nucleus across different concentrations of inhibitors. n = 3; error bars represent s.d. (C) Indicated number of U2OS cells was transfected with a nontargeting siRNA (siCon) or MUS81-targeting siRNA (siMUS81) seeded for a CFA. […] (D) Quantification of (C), error bars represent s.d.; ****p <0.0001 (unpaired, two-tailed t-test). […] (F) Quantification of (E) using a nonlinear regression fitting model. n = 3. […] (H) Quantification of (G) using a nonlinear regression fitting model. n = 3.
U2OS, CAL51 WT, and CAL51 MUS81^–/– cells (10,000) were seeded in a 96-well plate 24 h before the treatment. […] The γH2AX foci were detected and quantified using CellProfiler (Broad Institute of MIT and Harvard). The analyzed data were plotted in RStudio software using R programming language.

We go through 2 compounds from article PMC12990037, “Discovery of Two Structurally Distinct Classes of Inhibitors Targeting the Nuclease MUS81 and Enhancing Efficacy of Chemotherapy in Cancer Cells” (Journal of Medicinal Chemistry, 2026).

Turning to `CCc1nn2c(O)c(-c3nc4ccccc4[nH]3)nnc2c1-c1ccc(F)cc1` [Compound 18, 3-(1H-Benzo[d]imidazole-2-yl)-7-ethyl-8-(4-fluorophenyl)pyrazolo[5,1-c][1,2,4]triazin-4-ol], the microsomal stability entry in “Microsomal stability” is given as “good microsomal stability”. In addition, the micronuclei formation result in the data set on U2OS cells [1] is “significantly increased micronuclei formation”. Moreover, the “apoptosis (Annexin V staining)” value with U2OS cells [2] is recorded as “no increase in apoptosis”. Besides, the “γH2AX (DNA damage) foci” value in the data set with U2OS cells [3] was “significantly increased the number of DNA damage foci in a concentration-dependent manner”.
The like results for `Cc1cc(=O)[nH]c(-n2nc(-c3ccccc3)cc2NC(=O)c2cc(-c3ccccc3)on2)n1` [Compound 32, N-(1-(4-Methyl-6-oxo-1,6-dihydropyrimidin-2-yl)-3-phenyl-1H-pyrazol-5-yl)-5-phenylisoxazole-3-carboxamide] were, in that order, “good microsomal stability”, “significantly increased micronuclei formation”, “no increase in apoptosis” and “significantly increased the number of DNA damage foci in a concentration-dependent manner”.
